This passage reports LC retention time results from the RepoRT retention time repository (doi:10.1016/j.chroma.2014.05.003).

The data set is described as follows: RP, Agilent ZORBAX Eclipse Plus C18, 50 × 4.6 mm, 1.8 µm, 0.5 mL/min, estimated dead time 1.1 min; A: water + 0.1% formic acid; B: acetonitrile + 0.1% formic acid; gradient (min/%B) 0/10 3/10 25/100 28/100. To be noted: stereoisomer not certain.

For `CCCCc1c(C)nc(NCC)nc1OS(=O)(=O)N(C)C`, the LC retention time is 14.4 min.

`CCOP(=S)(OCC)SCSP(=S)(OCC)OCC`: the LC retention time was 21.7 min.

Regarding `CC12CCC3C(=CCc4cc(O)ccc43)C1CCC2=O` (stereo unspecified), the LC retention time is 14.4 min.

`CCCN(CC)CC1COC2(CCC(C(C)(C)C)CC2)O1` (stereo unspecified): the LC retention time is 12.5 min.

Take `CS(=O)(=O)Nc1nc2cc(-c3ccc([N+](=O)[O-])cc3)c([N+](=O)[O-])cc2[nH]c1=O`: the LC retention time was 11.5 min.

In the case of `COP(=O)(NC(C)=O)SC` (stereo unspecified), the LC retention time is 1.86 min.

With `O=c1oc2ccccc2c(O)c1C1CC(c2ccc(-c3ccccc3)cc2)Cc2ccccc21` (stereo unspecified), the LC retention time was 21.7 min.

For `CCCCC1C(=O)N(c2ccccc2)N(c2ccccc2)C1=O`, the LC retention time was 17.2 min.

For the molecule `CN(C)C1CSSSC1`, the LC retention time is 2.02 min.

`Cc1cc(=O)n(-c2ccccc2)n1C`: the LC retention time is 6.97 min.

For `CCC(=O)C(CC(C)N(C)C)(c1ccccc1)c1ccccc1` (stereo unspecified), the LC retention time was 11.4 min.

`CS(=O)(=O)c1ccc(C(=O)C2C(=O)CCCC2=O)c([N+](=O)[O-])c1`: the LC retention time is 12 min.

For the molecule `O=NN1CCCC1`, the LC retention time is 2.66 min.

As to `CC(Cc1ccc(C(C)(C)C)cc1)CN1CC(C)OC(C)C1` (stereo unspecified), the LC retention time is 12.4 min.

Turning to `Cc1cccc(C)c1N`, the LC retention time is 5.94 min.

`CNC(C)C(O)c1ccccc1` (stereo unspecified): the LC retention time is 2.78 min.

For the molecule `CCNc1nc(NC(C)(C)C)nc(OC)n1`, the LC retention time is 9.32 min.

Turning to `Nc1ccc(S(=O)(=O)Nc2nccs2)cc1`, the LC retention time is 5.2 min.

With `CCC(C)C(=O)OC1CCC=C2C=CC(C)C(CCC3CC(O)CC(=O)O3)C21` (stereo unspecified), the LC retention time is 15.7 min.

As for `CCCN(CCC)C(=O)SCc1ccccc1`, the LC retention time is 20.4 min.

For `CCN(CC)N=O`, the LC retention time is 15.9 min.

Take `COP(=O)(OC)OC(C)=CC(=O)N(C)C`: the LC retention time is 6.41 min.

For `CNC(=O)ON=CC(C)(C)S(C)(=O)=O`, the LC retention time was 4.81 min.

Consider `CCOP(=S)(OCC)Oc1ccc(S(C)=O)cc1` (stereo unspecified), for which the LC retention time is 13.5 min.

For `COC(=O)Nc1nc2ccc(S(=O)c3ccccc3)cc2[nH]1` (stereo unspecified), the LC retention time is 8.64 min.

As for `COc1cc(Cc2cnc(N)nc2N)cc(OC)c1OC`, the LC retention time is 5.6 min.

As for `CCOc1ccc2c3c1OC1C(O)C=CC4C(C2)N(C)CCC341` (stereo unspecified), the LC retention time is 5.83 min.

Regarding `O=C(O)c1ccccc1C(=O)Nc1cccc2ccccc12`, the LC retention time was 11.7 min.

On to `CCCCC(CC)COC(=O)c1ccccc1C(=O)OCC(CC)CCCC` (stereo unspecified), for which the LC retention time was 27.5 min.

For `CNC(=O)Oc1ccccc1OC(C)C`, the LC retention time is 11.9 min.

On to `CCOP(=O)(SC(C)CC)N1CCSC1=O` (stereo unspecified), for which the LC retention time is 12.7 min.

For `O=NN1CCCCC1`, the LC retention time was 6.57 min.

Turning to `CCCCCCCCCCCC[N+](C)(C)Cc1ccccc1`, the LC retention time was 16.2 min.

On to `CNC(=O)C=C(C)OP(=O)(OC)OC`, for which the LC retention time was 5.55 min.

For `CNC(=C[N+](=O)[O-])NCCSCc1ccc(CN(C)C)o1`, the LC retention time is 2.03 min.

As for `CCN(CC)c1nc(C)cc(OP(=S)(OC)OC)n1`, the LC retention time is 19 min.

For `CC(C)C1(C)N=C(c2nc3ccccc3cc2C(=O)O)NC1=O` (stereo unspecified), the LC retention time is 11 min.

`CC(=O)OC1C=CC2C3Cc4ccc(O)c5c4C2(CCN3C)C1O5` (stereo unspecified): the LC retention time is 4.94 min.

Take `CCCC1CC(C(=O)NC(C(C)O)C2OC(SC)C(O)C(O)C2O)N(C)C1` (stereo unspecified): the LC retention time is 3.66 min.

Regarding `CC(C)NCC(O)COc1ccc(CC(N)=O)cc1` (stereo unspecified), the LC retention time is 1.76 min.

Consider `CN(C)C1C(=O)C(C(N)=O)=C(O)C2(O)C(=O)C3=C(O)c4c(O)cccc4C(C)(O)C3C(O)C12` (stereo unspecified), for which the LC retention time was 6.11 min.

On to `Cc1nc(N(C)C)nc(OC(=O)N(C)C)c1C`, for which the LC retention time is 6.86 min.

Regarding `CCSC(=O)N(CC)C1CCCCC1`, the LC retention time is 19.8 min.

For `COC(=O)c1ccccc1CS(=O)(=O)NC(=O)Nc1nc(OC)cc(OC)n1`, the LC retention time is 14.2 min.

In the case of `Cc1onc(-c2ccccc2)c1C(=O)NC1C(=O)N2C1SC(C)(C)C2C(=O)O` (stereo unspecified), the LC retention time is 12.8 min.

In the case of `COP(=S)(OC)Oc1ccc([N+](=O)[O-])cc1`, the LC retention time was 16.3 min.

Regarding `Nc1ccc(S(N)(=O)=O)cc1`, the LC retention time is 1.82 min.

Consider `Cc1c(C(C)C)c(=O)n(-c2ccccc2)n1C`, for which the LC retention time was 11.9 min.

In the case of `COP(=S)(OC)Oc1ccc(Sc2ccc(OP(=S)(OC)OC)cc2)cc1`, the LC retention time was 21.2 min.

As for `CN(C)C(=O)Nc1ccccc1`, the LC retention time is 7.72 min.

As to `CCOP(=S)(OCC)Oc1cc(C)nc(C(C)C)n1`, the LC retention time is 18.8 min.

On to `CC(Cc1ccc(C(C)(C)C)cc1)CN1CCCCC1` (stereo unspecified), for which the LC retention time was 12.5 min.

On to `COC(=O)c1ccc(C)cc1C1=NC(C)(C(C)C)C(=O)N1` (stereo unspecified), for which the LC retention time is 9.12 min.

In the case of `C=C(C)C1Cc2c(ccc3c2OC2COc4cc(OC)c(OC)cc4C2C3=O)O1` (stereo unspecified), the LC retention time is 17.2 min.

For the molecule `O=C1CCc2cccc3c2N1CC3`, the LC retention time is 10.2 min.

Turning to `CSc1nnc(C(C)(C)C)c(=O)n1N`, the LC retention time was 11.5 min.

Take `CC12CCC(=O)C=C1CCC1C2CCC2(C)C(O)CCC12` (stereo unspecified): the LC retention time was 13.7 min.

For `Nc1ccc(S(=O)(=O)Nc2ccccn2)cc1`, the LC retention time was 5.27 min.

Consider `COC(=O)C=C(C)OP(=O)(OC)OC`, for which the LC retention time was 9.1 min.

In the case of `CCOP(=S)(OCC)Oc1ccc([N+](=O)[O-])cc1`, the LC retention time was 18.5 min.

Turning to `COC1C(OC(C)=O)CC(=O)OC(C)CC=CC=CC(O)C(C)CC(CC=O)C1OC1OC(C)C(OC2CC(C)(O)C(OC(=O)CC(C)C)C(C)O2)C(N(C)C)C1O` (stereo unspecified), the LC retention time was 12 min.

As for `CC12CCC3c4ccc(O)cc4CCC3C1CCC2O` (stereo unspecified), the LC retention time was 13.4 min.

On to `Cc1cc(NS(=O)(=O)c2ccc(N)cc2)no1`, for which the LC retention time was 9.06 min.

Take `COC(=O)Nc1nc2ccc(Sc3ccccc3)cc2[nH]1`: the LC retention time is 12.6 min.

For `CNC(=O)ON=C(C)SC`, the LC retention time is 5.39 min.

`CCNc1nc(NCC)nc(SC)n1`: the LC retention time is 8.74 min.
